Assay results as given in article PMC3755041 (Chemistry & biology, 2013).

How the values were obtained:
[1] = target: T1, human peroxiredoxin-IV (hPrxIV) (Homo sapiens, UniProt Q13162); assay: H2O2 consumption assay; type: biochemical
T1 sequence (Q13162 38-271): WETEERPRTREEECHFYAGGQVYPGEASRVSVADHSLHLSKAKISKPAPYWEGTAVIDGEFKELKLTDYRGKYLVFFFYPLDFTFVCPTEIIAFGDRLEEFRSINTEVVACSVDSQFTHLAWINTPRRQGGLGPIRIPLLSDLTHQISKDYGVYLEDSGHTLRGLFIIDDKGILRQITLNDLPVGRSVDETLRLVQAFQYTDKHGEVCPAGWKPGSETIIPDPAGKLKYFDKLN

[2] = target: T2, human peroxiredoxin-II (hPrxII) (Homo sapiens, UniProt P32119); assay: H2O2 consumption assay; type: biochemical
T2 sequence (P32119 2-198): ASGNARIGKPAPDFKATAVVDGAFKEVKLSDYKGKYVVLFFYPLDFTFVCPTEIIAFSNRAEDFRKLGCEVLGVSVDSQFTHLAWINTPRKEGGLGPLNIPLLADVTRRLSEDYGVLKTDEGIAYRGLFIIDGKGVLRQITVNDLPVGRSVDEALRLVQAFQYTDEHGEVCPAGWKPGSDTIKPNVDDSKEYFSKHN

[3] = target: AcePrx-1 (peroxiredoxin-1) (Ancylostoma ceylanicum, UniProt J7HJM3); assay: co-crystal structure; type: biochemical
[4] = target: T3, AcePrx-1 (peroxiredoxin-1) (Ancylostoma ceylanicum, UniProt J7HJM3); assay: LC-ESI-MS of covalent adduct on purified protein; type: binding
T3 sequence (J7HJM3 1-196): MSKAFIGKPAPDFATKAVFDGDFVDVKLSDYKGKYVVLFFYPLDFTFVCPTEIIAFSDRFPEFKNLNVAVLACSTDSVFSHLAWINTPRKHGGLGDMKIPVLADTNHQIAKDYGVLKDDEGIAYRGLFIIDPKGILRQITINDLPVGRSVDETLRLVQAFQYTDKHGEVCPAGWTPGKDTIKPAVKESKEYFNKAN

[5] = target: AcePrx-1 containing a C-terminal histidine tag (Ancylostoma ceylanicum); assay: SEC-MALS
[6] = target: Peroxiredoxin-1 from Ancylostoma ceylanicum, wild type, N-terminal histidine tag (Ancylostoma ceylanicum); assay: SEC-MALS
[7] = target: Peroxiredoxin-1 from Ancylostoma ceylanicum, wild type, N-terminal histidine tag (Ancylostoma ceylanicum); assay: non-reducing SDS-PAGE

Compound `[O-][n+]1c(CBr)c(CBr)[n+]([O-])c2ccccc21` [conoidin A, 2,3-bis(bromomethyl)quinoxaline-1,4-dioxide] has an IC50 [1] of 262 µM, an IC50 [2] of 358 µM and an IC50 [3] of 374 µM.
In the case of `Cc1c(CBr)[n+]([O-])c2ccccc2[n+]1[O-]` [conoidin B, 2-(bromomethyl)-3-methylquinoxaline-1,4-dioxide], the “LC-ESI-MS of covalent adduct on purified protein” value [4] is reported as “Conoidin B reacted to wild type AcePrx-1 to produce a 189-Da adduct in LC-ESI-MS”.
“AcePrx-1 containing a C-terminal histidine tag (enzyme)” gave a stoichiometry N [5] of 10.
For “Peroxiredoxin-1 from Ancylostoma ceylanicum, wild type, N-terminal histidine tag (enzyme)”, the stoichiometry N [6] was 10 and the stoichiometry N [7] was 2.
